# Source: patent US12441980B2, “Methods for overcoming glutamine deprivation during mammalian cell culture” (priority 2014, dated 2025)
# Columns and labels:
# [1] = test system: anti alpha-synuclein CHO cells; experiment: Transition of anti alpha-synuclein CHO cells from glutamine-containing to glutamine-free media: growth rate and viability
# Protocol: Anti alpha-synuclein cells were transferred from glutamine-containing media to glutamine-free media using a 1:5 split ratio on Day 0. Cells were cultured at 36° C., 5% CO2 in 500 mL shake flasks and passaged every 4 days using glutamine-free media+10 mg/L insulin (first bar in FIG. 7A, diamond in FIG. 7B), glutamine-free media+10 mg/L insulin, 100 μM hypoxanthine, 16 μM thymidine (second bar in FIG. 7A, square in FIG. 7B), glutamine-free media+10 mg/L insulin, 500 μM adenosine (third bar in FIG. 7A, triangle in FIG. 7B), or glutamine-free media+10 mg/L insulin, 100 μM adenosine (fourth bar in FIG. 7A, circle in FIG. 7B), using a 1:5 split ratio.
# Offline analysis: Samples were taken on most days and analyzed with a variety of equipment. Cell density and viability were measured using the standard technique of trypan blue exclusion using a Cedex (Roche Innovatis AG, Germany). Cell viability and growth rate of the various cultures were measured during the culture time course at specific days post-inoculation.
# Anti alpha-synuclein CHO cells were transferred from glutamine-containing media to glutamine-free media using a 1:5 split ratio on Day 0.
# [2] = test system: mammalian cells expressing an immunoadhesin (DG44); experiment: Transition of immunoadhesin-expressing cells from glutamine-containing to glutamine-free media: cell viability and growth rate (trypan blue exclusion, Cedex); type: cell-based; settings: 2.5 μM corticosteroid in glutamine-free media; FIG. 3
# From the text: Cell culture methods: Cells were thawed and maintained as in a previous report (Kshirsagar, et al. 2012 Biotechnol Bioeng, Huang, et al. Biotechnology Progress 26(5):1400-1410 (2010)). Basal medium for thaw and passing was the same as in previous reports (Kshirsagar/Huang).
Structure (SMILES),toxicity (concentration-dependent response) ([1]; 500 μM supplementation compared to 100 μM supplementation),"viability during transition to glutamine-free media ([1]; HT 100 μM/16 μM, adenosine 500 μM or 100 μM, FIG. 7B)","transitional growth rate ([1]; transition to glutamine-free media, 1:5 split ratio, HT 100 μM/16 μM, adenosine 100 or 500 μM, FIG. 7A)",viability drop vs control condition [2],viability recovery period [2]
Nc1ncnc2c1ncn2[C@@H]1O[C@H](CO)[C@@H](O)[C@H]1O [adenosine],slightly toxic,maintains,boosted the transitional growth rate,,
C[C@]12CCC(=O)C=C1CC[C@@H]1[C@@H]2[C@@H](O)C[C@@]2(C)[C@H]1CC[C@]2(O)C(=O)CO [hydrocortisone],,,,prevented the sharp viability drop,shortened the viability recovery period
C[C@]12C=CC(=O)C=C1CC[C@@H]1[C@@H]2[C@@H](O)C[C@@]2(C)[C@H]1CC[C@]2(O)C(=O)CO [prednisolone],,,,prevented the sharp viability drop,shortened the viability recovery period
